{"source": "paper PMC9069370", "about": "“Integrated Design of a Membrane‐Lytic Peptide‐Based Intravenous Nanotherapeutic Suppresses Triple‐Negative Breast Cancer” (Advanced Science, 2022)", "key": {"various [1]": {"test_system": "various", "conditions": "2D; ref [70]; cited from earlier work", "description": "(§1) Table 1 ACP activity comparison. Reported in vitro anticancer activity (IC50) of ACPs | column: IC50 [µM]"}, "MCF‐10A": {"test_system": "MCF‐10A", "test": "cells", "format": "cell-based, human", "conditions": "non-cancerous cells; 2D culture, MTT, 72 h incubation; library peptides n = 2; D-enantiomers and small molecules replicated six times; read-out: IC50 (µM) MCF-10A", "description": "(§2) […], and MCF-10A cells were maintained in MEGM with supplements and growth factors bovine pituitary extract, hydrocortisone, human epidermal growth factor, insulin, and gentamicin/amphotericin-B."}, "[2]": {"test_system": "HMLER‐shEcad tumorspheres", "test": "cells", "format": "cell-based, human", "conditions": "3D multicellular spheroids; reducing tumorsphere cell viability by 90%; read-out: IC90 against HMLER‐shEcad tumorspheres"}, "MCF‐10A mammospheres": {"test_system": "MCF‐10A mammospheres", "test": "Mammosphere viability assay (TOX8)", "format": "cell-based, human", "conditions": "3D non‐tumorigenic mammospheres"}, "human red blood cells": {"test_system": "human red blood cells", "test": "Haemolysis (human red blood cells)", "format": "cell-based", "conditions": "PBS, 37 °C, 1 h", "method": "Fresh human red blood cells were obtained from Interstate Blood Bank, Inc., and thoroughly washed in PBS until the supernatant was clear. The peptide was serially diluted in PBS starting at a concentration of 200 µM. […] As a positive lysis control, 1% triton was used. […] After centrifugation, 10 µL of supernatant was transferred to 90 µL of ddH2O in a fresh 96‐well plate."}, "various [3]": {"test_system": "various", "conditions": "read-out: IC50 [µM], various; 2D and 3D tumorspheres; summary of Figures 2, 3 and 5", "description": "The final concentration of DMSO in each well was either 0.5% or 0% and this amount was present in the untreated control."}, "HCT116": {"test_system": "HCT116", "conditions": "2D; ref [69]; cited from earlier work", "description": "as §1"}, "[4]": {"conditions": "cited from earlier work", "description": "(§3) Table 1 ACP activity comparison. Reported in vitro anticancer activity (IC50) of ACPs | column: Assay and Notes"}, "A20, AT84, MRC‐5": {"test_system": "A20, AT84, MRC‐5", "conditions": "ref [22], [23], [57], [63]; cited from earlier work", "description": "as §1"}, "MCF‐7": {"test_system": "MCF‐7", "conditions": "2D; ref [11], [19], [47]; cited from earlier work", "description": "as §1"}, "HMLER": {"test_system": "HMLER", "test": "cells", "format": "cell-based, human", "conditions": "2D culture, MTT, 72 h incubation; library peptides average of two independent experiments (n = 2); D-enantiomers and small molecules replicated six times; read-out: IC50 (µM) HMLER", "description": "as §2"}, "HMLER‐shEcad [5]": {"test_system": "HMLER‐shEcad", "test": "cells", "format": "cell-based, human", "conditions": "2D culture, MTT, 72 h incubation; library peptides average of two independent experiments (n = 2); D-enantiomers and small molecules replicated six times; read-out: IC50 (µM) HMLER-shEcad", "description": "as §2"}, "U2OS": {"test_system": "U2OS", "format": "cell-based, human", "conditions": "2D culture, MTT, 72 h incubation; library peptides n = 2; D-enantiomers and small molecules replicated six times; read-out: IC50 (µM) U2OS"}, "HEK293T": {"test_system": "HEK293T", "test": "cells", "format": "cell-based, human", "conditions": "non-cancerous cells; 2D culture, MTT, 72 h incubation; library peptides n = 2; D-enantiomers and small molecules replicated six times; read-out: IC50 (µM) HEK293T"}, "[6]": {"test": "Tryptophan fluorescent binding assay", "conditions": "tryptophan fluorescence; 50 µM peptide, lipid titrated 0-5000 µM; phosphate buffered saline 1X, pH 7.4; values as lipid per peptide", "how_it_was_run": "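Peptides at 50 µM were incubated for 1 h with increasing amounts of 3:1 POPC:POPG unilamellar vesicles in 1X phosphate buffered saline, pH 7.4. Tryptophan emission (300–450 nm, excitation 280 nm) was recorded on a Cytation 5 multi-mode reader. The lipid concentration giving 50 % peptide binding was determined and reported as a lipid-to-peptide ratio.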"}, "[7]": {"test": "ANTS/DPX liposome leakage assay", "conditions": "0.5 mM vesicles, peptide 0-20 µM, 3 h incubation, lipid per peptide", "how_it_was_run": "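The value is the lipid-to-peptide ratio giving 50% ANTS/DPX release, with fluorescence (350/510 nm) read after 3 h and scaled to 10% Triton as full leakage. Peptides were titrated into 0.5 mM LUVs of POPC or 3POPC/1POPG (0.1 µm, free dye removed by gel filtration) in PBS at pH 7.4 or 4.8.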"}, "HMLER‐shEcad [8]": {"test_system": "HMLER‐shEcad", "test": "Resistance formation after prolonged drug exposure, 2D culture", "format": "cell-based, human", "conditions": "2D HMLER‐shEcad after 28 days co‐incubation with 0.4 µM d‐DHK", "method": "Cancer stem cells can survive treatment, gain resistance, and reseed tumors, presenting a major challenge for chemotherapy.^[ [2] ^] […] Drugs were added with medium every 3–4 days, maintaining smooth cell growth, and 125 000 cells were split into new T25 flasks with a total volume of 5 mL once per week."}, "[9]": {"test": "Tryptophan fluorescence and circular dichroism binding to vesicles", "conditions": "binding to both POPC and POPG vesicles; 50 µM peptide, 10 mM phosphate buffer, pH 7.0", "method": "50 µM ACP peptides and varied concentrations (concentrations: 0, 25, 50, 100, 150, 200, 250, 500, 1250, and 2500 µM) of POPC or POPC:POPG (3:1 ratio) large unilamellar vesicles were prepared in 10 mM phosphate buffer (pH 7.0). The solutions were measured after 1 h of incubation. Excitation was fixed at 280 nm (slit 9 nm) and emission was collected from 300 to 450 nm (slit 9 nm). The spectra were recorded using Cytation 5 Cell Imaging Multi‐Mode Reader from BioTek and were averaged by three scans.\nExtended Data Figure 9 | Peptide-lipid interactions. Conformational change of tryptophan fluorescence quenching of 50 µM DHK peptide with titrated a, POPC or b, POPG LUV concentration (0, 12.5, 25, 50, […]\nPOPC or d, POPG LUV against elevated temperature (20, 45, 70, and 95 °C). The black solid line represents peptide-only in buffer at 20 °C. All the experiments were performed in 10 mM phosphate buffer, pH 7.0.\n(1 picture or pasted object on this page, not shown here)"}, "A549": {"test_system": "A549", "conditions": "2D; ref [68]; cited from earlier work", "description": "as §1"}, "tumor in mouse": {"test_system": "tumor in mouse", "conditions": "dose: 25 mg kg^−1; ref [68]; cited from earlier work", "description": "as §3"}, "[10]": {"conditions": "PBS 1X pH 7.4, high ratio = more potent"}}, "note": "Like-named read-outs stand apart in the source and are kept apart here. Square brackets hold non-standard residues; d marks the D form. Peptide text beside a SMILES is read from it.", "data": [{"molecule": "Aurein 1.2", "values": [{"measurement": "IC50", "setting": "various [1]", "value": "10 to 100", "unit": "µM"}]}, {"molecule": "CC(C)C[C@H](NC(=O)CN)C(=O)N[C@@H](CC(C)C)C(=O)N[C@@H](CCC(=O)O)C(=O)N[C@@H](CC(C)C)C(=O)N[C@@H](CC(C)C)C(=O)N[C@@H](CCC(=O)O)C(=O)N[C@@H](CC(C)C)C(=O)N[C@@H](CC(C)C)C(=O)N[C@@H](CC(C)C)C(=O)N[C@@H](CCCCN)C(=O)N[C@@H](C)C(=O)N[C@@H](C)C(=O)NCC(=O)N[C@@H](Cc1c[nH]c2ccccc12)C(N)=O", "note": "[EEK] (H-GLLELLELLLKAAGW-NH2)", "values": [{"measurement": "IC50", "setting": "MCF‐10A", "value": "> 200", "unit": "µM"}, {"measurement": "IC90", "setting": "[2]", "value": "23 ± 3", "unit": "µM"}, {"measurement": "IC90 against MCF‐10A mammospheres", "setting": "MCF‐10A mammospheres", "value": "141 ± 11", "unit": "µM"}, {"measurement": "human red blood cell lysis", "setting": "human red blood cells", "value": "only minimal human red blood cell lysis below 90 µM"}, {"measurement": "IC50", "setting": "various [3]", "value": "1 to 27", "unit": "µM"}]}, {"molecule": "LL37", "values": [{"measurement": "IC50", "setting": "HCT116", "value": 40, "unit": "µM"}, {"measurement": "toxicity note", "setting": "[4]; ref [69]", "value": "2D; Vascular toxicity"}]}, {"molecule": "LTX‐315", "values": [{"measurement": "IC50", "setting": "A20, AT84, MRC‐5", "value": "8 to 34", "unit": "µM"}]}, {"molecule": "CC(C)[C@H](NC(=O)[C@H](CCCCN)NC(=O)[C@@H](NC(=O)[C@H](CCCCN)NC(=O)[C@@H](NC(=O)[C@H](CCCCN)NC(=O)[C@@H](NC(=O)[C@@H]1CCCN1C(=O)[C@H]1CCCN1C(=O)[C@@H](NC(=O)[C@H](CCCCN)NC(=O)[C@@H](NC(=O)[C@H](CCCCN)NC(=O)[C@@H](NC(=O)[C@H](CCCCN)NC(=O)[C@@H](NC(=O)[C@@H](N)CCCCN)C(C)C)C(C)C)C(C)C)C(C)C)[C@@H](C)O)C(C)C)C(C)C)C(=O)N[C@@H](CCCCN)C(N)=O", "note": "[SVS‐1] (H-KVKVKVKV[dP]PTKVKVKVK-NH2; N-terminus and C-terminus assumed)", "values": [{"measurement": "IC50", "setting": "MCF‐7", "value": 11, "unit": "µM"}, {"measurement": "drug resistance note", "setting": "[4]; ref [11], [19], [47]", "value": "2D; in vitro drug resistance was observed"}]}, {"molecule": "CC(C)C[C@H](NC(=O)CN)C(=O)N[C@@H](CC(C)C)C(=O)N[C@@H](CC(=O)O)C(=O)N[C@@H](CC(C)C)C(=O)N[C@@H](CC(C)C)C(=O)N[C@@H](Cc1c[nH]cn1)C(=O)N[C@@H](CC(C)C)C(=O)N[C@@H](CC(C)C)C(=O)N[C@@H](CC(C)C)C(=O)N[C@@H](CCCCN)C(=O)N[C@@H](C)C(=O)N[C@@H](C)C(=O)NCC(=O)N[C@@H](Cc1c[nH]c2ccccc12)C(N)=O", "note": "[DHK] (H-GLLDLLHLLLKAAGW-NH2)", "values": [{"measurement": "IC50", "setting": "HMLER", "value": "1.75 ± 0.49", "unit": "µM"}, {"measurement": "IC50", "setting": "HMLER‐shEcad [5]", "value": "1.02 ± 0.12", "unit": "µM"}, {"measurement": "IC50", "setting": "MCF‐10A", "value": "5.05 ± 1.34", "unit": "µM"}, {"measurement": "IC50", "setting": "U2OS", "value": "20.4 ± 2.05", "unit": "µM"}, {"measurement": "IC50", "setting": "HEK293T", "value": "7.3 ± 0.42", "unit": "µM"}, {"measurement": "HC50", "setting": "human red blood cells; one value for DHK, d‐DHK and d‐EEK together", "value": "14 ± 5", "unit": "µM"}, {"measurement": "Lipid Concentration-induced 50% Peptide Binding (L/P), 3POPC/1POPG Vesicle", "setting": "[6]", "value": 0.38, "unit": "L/P"}, {"measurement": "Lipid Concentration-induced 50% Peptide Binding (L/P), POPC Vesicle", "setting": "[6]", "value": 0.20, "unit": "L/P"}, {"measurement": "Peptide Concentration-induced 50 % ANTS/DPX leakage at pH 4.8 (L/P), 3POPC/1POPG Vesicle", "setting": "[7]; HCl-adjusted PBS 1X pH 4.8", "value": 183, "unit": "L/P"}, {"measurement": "Peptide Concentration-induced 50 % ANTS/DPX leakage at pH 4.8 (L/P), POPC Vesicle", "setting": "[7]; HCl-adjusted PBS 1X pH 4.8", "value": 47, "unit": "L/P"}, {"measurement": "Peptide Concentration-induced 50 % ANTS/DPX leakage at pH 7.4 (L/P), 3POPC/1POPG Vesicle", "setting": "[7]; [10]", "value": 469, "unit": "L/P"}, {"measurement": "Peptide Concentration-induced 50 % ANTS/DPX leakage at pH 7.4 (L/P), POPC Vesicle", "setting": "[7]; [10]", "value": 747, "unit": "L/P"}, {"measurement": "shift in IC50 after prolonged exposure to ACP", "setting": "HMLER‐shEcad [8]", "value": "no shift in IC50"}, {"measurement": "∆G binding", "setting": "[9]", "value": "-8.8 ± 1.2", "unit": "kcal/mol"}]}, {"molecule": "Magainin II", "values": [{"measurement": "IC50", "setting": "A549", "value": 45, "unit": "µM"}, {"measurement": "outcome in mouse xenograft model", "setting": "tumor in mouse", "value": "2D and mouse xenograft model (dose: 25 mg kg^−1); The tumor in mouse was smaller and still growing in 40 days"}]}]}
